This is an account of results in ChEMBL document CHEMBL1201862, “PubChem BioAssay data set” (2004).

Assay [1] deals with T1, Zinc finger protein mex-5 (Caenorhabditis elegans, UniProt Q9XUB2).
T1 sequence (Q9XUB2 whole entry): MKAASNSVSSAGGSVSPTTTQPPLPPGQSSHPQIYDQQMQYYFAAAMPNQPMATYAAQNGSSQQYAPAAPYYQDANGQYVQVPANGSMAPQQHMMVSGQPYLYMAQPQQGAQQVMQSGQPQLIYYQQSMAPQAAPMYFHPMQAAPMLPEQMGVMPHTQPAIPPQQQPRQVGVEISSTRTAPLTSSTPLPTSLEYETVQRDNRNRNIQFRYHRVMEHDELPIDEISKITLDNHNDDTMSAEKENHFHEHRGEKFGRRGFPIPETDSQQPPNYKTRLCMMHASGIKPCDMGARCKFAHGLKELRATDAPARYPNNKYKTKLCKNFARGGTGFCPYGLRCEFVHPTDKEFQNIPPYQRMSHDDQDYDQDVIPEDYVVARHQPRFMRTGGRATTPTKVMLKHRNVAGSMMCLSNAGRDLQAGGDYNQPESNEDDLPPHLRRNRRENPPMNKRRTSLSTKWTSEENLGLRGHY
Description: potency of MEX-5 RNA-binding blockers – biochemical, C. elegans, fluorescence polarization, dose response (AID 1960). (In general: Polarisation of emitted light reports the rotation of a fluorescent probe.)

The target in assay [2] is T2, RNA-binding protein pos-1 (Caenorhabditis elegans, UniProt G5EF15).
T2 sequence (G5EF15 whole entry): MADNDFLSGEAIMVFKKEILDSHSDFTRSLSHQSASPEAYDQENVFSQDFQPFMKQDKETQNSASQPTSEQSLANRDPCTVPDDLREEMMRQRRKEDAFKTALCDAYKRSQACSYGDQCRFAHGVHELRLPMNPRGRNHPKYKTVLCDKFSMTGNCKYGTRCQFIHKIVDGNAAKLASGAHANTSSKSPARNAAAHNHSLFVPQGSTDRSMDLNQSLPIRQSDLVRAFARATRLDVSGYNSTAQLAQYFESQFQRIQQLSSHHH
Description: disruptors of C. elegans POS-1 RNA interaction – biochemical, fluorescence polarization, dose response (AID 1964).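 Also: purified POS-1 fused to maltose binding protein made in E. coli; potency of compounds blocking POS-1 binding to fluorescent RNA.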

A short description of assay [3]: DRD fibroblast viability loss – cell-based, non-viral oncogenic, luminescence, dose response (AID 1934). In kind it is functional. To be noted: Homo sapiens.
Assay [4] relates to BJ. Description: BJ-TERT-LT-ST fibroblast viability loss – cell-based, RAS-independent, luminescence, dose response (AID 1935).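 Also: BJ fibroblasts immortalized with TERT plus LT and ST oncogenes.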 The class given is functional. Conditions: Homo sapiens.
In assay [5] the test system is BJ. Description: BJ-TERT fibroblast viability loss – cell-based, RAS-independent, luminescence, dose response (AID 1933). In kind it is functional. Conditions: Homo sapiens.
In assay [6] the test system is BJ. Description: cells. In kind it is functional, cell-based. Conditions: Homo sapiens.
In the next assay the test system is INS1. Description: INS-1E survival protection against cytokine death – cell-based, luminescence, retest, dose response (AID 449756).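 Also: cell death triggered by IL-1 beta plus TNF-alpha plus IFN-gamma mixture; protective hits raise ATP signal compared with cytokine alone wells.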 In kind it is functional. To be noted: Rattus norvegicus.
In assay [7] the target is T3, Corticotropin-releasing factor receptor 2/Corticotropin-releasing factor-binding protein (Homo sapiens, UniProt P24387+Q13324).
T3 sequence (Q13324 whole entry): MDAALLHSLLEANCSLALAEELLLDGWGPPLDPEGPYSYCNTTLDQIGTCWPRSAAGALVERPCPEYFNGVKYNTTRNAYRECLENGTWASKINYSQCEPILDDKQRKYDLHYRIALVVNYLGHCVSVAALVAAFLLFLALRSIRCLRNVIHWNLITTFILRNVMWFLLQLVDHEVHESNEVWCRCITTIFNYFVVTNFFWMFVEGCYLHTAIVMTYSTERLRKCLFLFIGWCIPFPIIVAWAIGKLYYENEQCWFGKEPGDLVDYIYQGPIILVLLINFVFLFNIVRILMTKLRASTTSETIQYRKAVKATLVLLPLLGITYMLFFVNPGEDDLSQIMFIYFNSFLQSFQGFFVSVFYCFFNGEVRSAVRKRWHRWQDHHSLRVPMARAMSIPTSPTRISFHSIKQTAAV
T3 sequence (P24387 whole entry): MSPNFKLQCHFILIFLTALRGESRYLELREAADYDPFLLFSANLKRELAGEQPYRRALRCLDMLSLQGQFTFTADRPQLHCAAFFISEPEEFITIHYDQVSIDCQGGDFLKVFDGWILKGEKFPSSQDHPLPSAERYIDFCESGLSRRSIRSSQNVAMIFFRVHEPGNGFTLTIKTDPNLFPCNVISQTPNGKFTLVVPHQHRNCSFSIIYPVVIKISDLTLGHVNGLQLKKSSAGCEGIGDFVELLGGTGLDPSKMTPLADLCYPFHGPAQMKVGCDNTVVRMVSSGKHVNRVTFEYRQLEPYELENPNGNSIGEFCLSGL
Description: activators of CRF receptor 2 with binding protein – uHTS hits, confirmation (AID 602473). Conditions: read-out: EC50_Mean. The class given is functional.

Another assay concerns the target Large T antigen (Simian virus 40, UniProt P03070). In kind it is functional, Betapolyomavirus macacae.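 Also: Confirmatory-stage PubChem screen for compounds that inhibit SV40 T antigen.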
The target in assay [8] is Luciferin 4-monooxygenase (Photinus pyralis, UniProt P08659). Description: inhibition of purified Photinus pyralis luciferase – biochemical, luminescence, dose response (AID 1891).
Chain of Luciferin 4-monooxygenase (P08659 whole entry): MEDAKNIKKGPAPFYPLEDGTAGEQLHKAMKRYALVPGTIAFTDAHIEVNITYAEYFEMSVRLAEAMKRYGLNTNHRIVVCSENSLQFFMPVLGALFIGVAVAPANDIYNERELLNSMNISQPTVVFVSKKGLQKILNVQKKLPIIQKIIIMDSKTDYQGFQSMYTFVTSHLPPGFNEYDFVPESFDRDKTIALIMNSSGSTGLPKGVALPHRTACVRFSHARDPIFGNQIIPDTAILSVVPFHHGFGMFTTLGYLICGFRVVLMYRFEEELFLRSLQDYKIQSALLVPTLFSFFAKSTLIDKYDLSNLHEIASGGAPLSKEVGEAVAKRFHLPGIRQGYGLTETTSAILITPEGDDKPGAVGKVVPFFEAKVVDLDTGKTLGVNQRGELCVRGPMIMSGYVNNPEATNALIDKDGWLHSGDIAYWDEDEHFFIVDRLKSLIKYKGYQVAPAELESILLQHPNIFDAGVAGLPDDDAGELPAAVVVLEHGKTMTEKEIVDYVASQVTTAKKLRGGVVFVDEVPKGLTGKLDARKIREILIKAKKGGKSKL
Assay [9] can be described thus: Luminescence Cell-Based Dose Confirmation HTS to Identify Inhibitors of Platelet Dense Granule Release. [Related pubchem assays: 1663 (Primary HTS), 1678 (Summary of Project)]. In kind it is functional.
The nature of assay [10]: non-specific 3'UTR reporter inhibition in Clone20-Shn3RL – cell-based, Renilla luciferase, cherry-picked, counter-screen for Shn3 inhibitor project, dose response (AID 624133). In kind it is functional. In general terms: The purpose of a counterscreen is to sort out artefacts and off-target activity.
Assay [11] in a line: loss of viability in HepG2 cells – cell-based, CellTiter-Glo, cherry-picked, cytotoxicity control for Shn3 inhibitor project, dose response (AID 624134). The class given is functional. In general terms: In ATP-based viability assays light output follows the ATP content of the culture.
A short description of assay [12]: reduction of Shn3 3'UTR-driven luciferase in osteoblasts – cell-based, Clone20 osteoblasts, firefly luciferase, cherry-picked, dose response (AID 624132).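 Also: firefly luciferase luminescence from reporter carrying the Shn3 3'UTR in osteoblasts.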 In kind it is functional.
Assay [13] deals with T4, Heat shock factor protein 1 (Mus musculus, UniProt P38532).
T4 sequence (P38532 whole entry): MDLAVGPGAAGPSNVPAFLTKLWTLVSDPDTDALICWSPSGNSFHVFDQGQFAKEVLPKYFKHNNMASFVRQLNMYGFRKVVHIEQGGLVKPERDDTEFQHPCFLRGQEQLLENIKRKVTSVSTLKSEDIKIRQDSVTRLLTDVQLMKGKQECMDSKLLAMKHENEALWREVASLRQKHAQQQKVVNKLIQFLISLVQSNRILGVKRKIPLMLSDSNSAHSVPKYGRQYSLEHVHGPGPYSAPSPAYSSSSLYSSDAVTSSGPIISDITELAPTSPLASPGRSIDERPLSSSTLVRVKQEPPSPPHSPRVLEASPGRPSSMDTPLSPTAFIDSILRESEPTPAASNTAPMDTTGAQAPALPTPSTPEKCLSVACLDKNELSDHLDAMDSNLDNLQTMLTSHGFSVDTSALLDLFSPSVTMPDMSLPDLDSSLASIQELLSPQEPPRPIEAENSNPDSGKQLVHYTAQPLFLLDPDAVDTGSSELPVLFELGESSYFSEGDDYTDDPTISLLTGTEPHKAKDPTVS
Description: enhancement of HSF1-driven luciferase signal – cell-based, NIH3T3, luminescence, dose retest, confirmation (AID 435004).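 Also: stress induced by proteasome inhibitor MG132 added 30 min after compound; luciferase reporter driven by HSF1 response element in NIH3T3 cells; actives raise luminescence as potentiators of the MG132 stress response.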 In kind it is functional.

The nature of assay [14]: alpha-synuclein stem-loop luciferase translation blockers – H4 neuroglioma cells, luminescence, confirmation (AID 1988). In kind it is functional, cell-based.

Active and inactive are the calls of the source. Rule as the data show it, for most assays here: actives have a measured EC50 and inactives only a lower limit.

Chain of Large T antigen (P03070 whole entry): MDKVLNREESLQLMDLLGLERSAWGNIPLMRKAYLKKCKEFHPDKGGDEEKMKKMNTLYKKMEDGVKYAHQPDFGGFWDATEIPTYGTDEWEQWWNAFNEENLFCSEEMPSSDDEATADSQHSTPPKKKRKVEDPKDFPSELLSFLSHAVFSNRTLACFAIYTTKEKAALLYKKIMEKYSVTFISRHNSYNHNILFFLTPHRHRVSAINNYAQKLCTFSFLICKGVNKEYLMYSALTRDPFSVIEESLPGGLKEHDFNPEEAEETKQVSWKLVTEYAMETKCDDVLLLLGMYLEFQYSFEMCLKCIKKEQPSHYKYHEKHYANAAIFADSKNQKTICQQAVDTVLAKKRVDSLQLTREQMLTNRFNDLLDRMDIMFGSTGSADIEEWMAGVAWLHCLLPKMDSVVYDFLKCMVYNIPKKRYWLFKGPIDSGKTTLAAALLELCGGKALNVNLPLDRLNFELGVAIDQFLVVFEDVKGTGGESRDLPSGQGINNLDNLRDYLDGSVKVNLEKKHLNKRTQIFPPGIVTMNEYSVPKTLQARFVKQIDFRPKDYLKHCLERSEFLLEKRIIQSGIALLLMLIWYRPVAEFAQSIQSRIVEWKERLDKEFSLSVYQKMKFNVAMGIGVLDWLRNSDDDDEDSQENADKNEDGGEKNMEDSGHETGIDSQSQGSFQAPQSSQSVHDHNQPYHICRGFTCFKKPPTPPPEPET

In the case of `Cc1c(C(=O)O)cccc1-n1c(C)cc(C=O)c1C`, the EC50 in [1] and in [2] was > 300 µM (not active) each time.
Turning to `O=C(CCN1C(=O)/C(=C\c2ccccc2F)SC1=S)N1CCCCC1`, the EC50 in [3] is 15.5 µM (active); with BJ [4], > 75 µM (not active); in the assay with BJ [5], 15.8 µM (active); in the assay with BJ [6] it was 14.4 µM (active).
By AC50 is commonly meant the concentration giving half of the maximal activity seen. For `Cc1ccc(CSC(Nc2ccc(F)cc2)=C(C#N)C#N)cc1`, the EC50 in assay [3] was 76.4 µM (active); with BJ [4], > 75 µM (not active); in the assay with BJ [5], 14.1 µM (active); with BJ [6], > 150 µM (not active); in assay [7] it was > 53 µM (inactive). In addition, the AC50 with INS1 was 3.19 µM (active).
The IC50 is the concentration needed to halve the response being measured. With `COc1cc(SC)ccc1C(=O)N1CCN(Cc2ccccc2)CC1`, at Large T antigen, the IC50 was 53.8 µM (active).
Consider `Cc1cc2c(n1-c1ccc(C(=O)O)cc1)CCCCC2`, for which the IC50 on Large T antigen is 71.2 µM (active).
On to `COc1ccc(NC(=O)CN2CCC(NC(=O)C3CCCCC3)CC2)c([N+](=O)[O-])c1`, for which the EC50 is > 300 µM (not active) in [1] and 67.9 µM (active) in [2].
On the same counts, the results for `O=C(OCC(=O)c1ccco1)c1ccc2ncsc2c1` are > 300 µM (not active) and > 300 µM (not active).
For the molecule `Cc1ccc(CN2CCN(/N=C/C(Br)=C\c3ccccc3)CC2)cc1`, in assay [7], the EC50 is > 53 µM (inactive).
Consider `Cc1ccc(-c2sc(-c3ccccc3)nc2CC(=O)Nc2ccccc2F)cc1`, for which, in the assay on INS1, the AC50 is 2.27 µM (active). For the same molecule, the EC50 in assay [7] is > 53 µM (inactive).
Consider `Cc1cccc(-c2cnn(-c3ccccc3)c2N)c1`, for which the figures for the EC50 in [8] and in assay [9] were 46 µM (active) and 31.7 µM (active), respectively.
For `Cc1ccnc(NC(=O)c2ccoc2C)c1`, in that order: 17.5 µM (active) and 3.51 µM (active).
On the same counts, the results for `O=C(C(Cc1ccccc1)n1cccc1)N1CCN(c2ncccn2)CC1` (centres undefined) are > 112 µM (not active) and > 112 µM (not active).
On to `NC(Cc1ccc(Cl)cc1)c1csc(NC(=O)NCC2CCCCC2)n1` (centres undefined), for which the figures for the AC50 in assay [10], in assay [11] and in assay [12] were 9.27 µM (active), 11.1 µM (active) and 6.58 µM (active), respectively.
Regarding `Cc1cccc(-n2c(C)cc(/C=C3\C(=N)N4N=C(CC(C)C)SC4=NC3=O)c2C)c1`, in [7], the EC50 is 24.2 µM (active).
As for `COc1ccc(CC(=O)NNC2=Nc3cccc4cccc2c34)cc1`, the EC50 in [1] was > 150 µM (inconclusive); in assay [2] it was 119 µM (inconclusive).
For the molecule `O=C(Nc1ccccc1O)c1cccc(S(=O)(=O)Nc2ccccc2O)c1`, the EC50 in [1] is 36.2 µM (active); in assay [13], > 260 µM (inactive); in assay [2] it was 59.1 µM (active).
For `Cc1ccc(/C=N/NC(=O)c2nn(C)cc2Cl)cc1`, the EC50 is 19.9 µM (active) in [8] and 16.6 µM (active) in [9].
For `Cn1c(=O)c2c(nc(CN3CCOCC3)n2CC(=O)c2ccccc2)n(C)c1=O`, in that order: > 112 µM (not active) and 39 µM (active).
`Cc1ccc(S(=O)(=O)CCC(=O)Oc2ccc3c(C)cc(=O)oc3c2)cc1`: on Large T antigen, the IC50 is 48.6 µM (active).
For the molecule `Oc1nc(/C=C/c2ccccc2F)nc2ccccc12`, the EC50 in [3] was 2.25 µM (active); in assay [14] it was 7.23 µM (inconclusive); in the assay on BJ [4], 29.3 µM (inconclusive); in the assay with BJ [5], 2.12 µM (active); with BJ [6], 45.2 µM (inconclusive).
In the case of `CSc1ccc(C(=O)C2CCCN(S(=O)(=O)c3c(C)noc3C)C2)cc1` (centres undefined), the EC50 in assay [8] and in assay [9] was > 112 µM (not active) in each case.
As to `CCN1CCN(Cc2ccc(NC(=O)c3cc(NC(=O)c4cncc(-c5cccs5)c4)cc(OC)c3)cc2C(F)(F)F)CC1`, the figures for the AC50 in assay [10], in assay [11] and in assay [12] were 27.3 µM (active), > 70 µM (inactive) and 9.68 µM (active), respectively.
Turning to `CCOC(=O)C1CCN(C(=O)c2ccc3c(c2)NC(=O)/C(=C\c2ccc(C)cc2)S3)CC1`, the EC50 in [1] was 30.8 µM (active); in assay [2], 7.37 µM (active).
As to `CC(=O)c1cccc(-n2nnnc2SCC(=O)N2CCCC2)c1`, the EC50 in assay [8] and in assay [9] was > 112 µM (not active) in each case.
Take `Cc1c(Cl)cccc1NC(=O)Nc1ccc(C(=O)N2CCCC2)cc1`: the values for the EC50 in [8] and in assay [9] were 1.94 µM (active) and 30.4 µM (active), respectively.
For the molecule `Cc1ccc(S(=O)(=O)N(CCCN2CCCC2=O)Cc2cc3c(C)ccc(C)c3[nH]c2=O)cc1`, the EC50 in [1] and in assay [2] was > 300 µM (not active) throughout.
Regarding `CC(C)(C)NC(=O)CN1CCN(C(=O)CCl)CC1`, the EC50 in [3] is > 150 µM (not active); with BJ [4], > 150 µM (not active); in the assay with BJ [5], > 150 µM (not active); with BJ [6] it was > 150 µM (inconclusive).
As for `COc1ccc(NC(=O)CN(C)C(=O)CSc2ccc3c(c2)OCCO3)cc1`, the EC50 in [7] is > 53 µM (inactive).
The same measure, in the same setting: next, `CCN1/C(=C2\SC(=S)N(Cc3ccccc3)C2=O)Sc2ccccc21`: > 53 µM (inactive).
As for `COc1cc(Cl)ccc1OCc1cc(C(=O)N2C[C@]3(C)C[C@H]2CC(C)(C)C3)no1`, the EC50 in [8] is 27 µM (active); in assay [9], > 112 µM (not active).
For `Cc1nnc(NC(=O)CSc2cn(CCNC(=O)c3ccccc3)c3ccccc23)s1`, the values for the EC50 in assay [8] and in [9] were > 112 µM (not active) and 80 µM (active), respectively.
